Data reported in PMC12810539, “EGFR-targeted gadolinium contrast agents for enhanced molecular magnetic resonance imaging of tumors” (The Journal of Biological Chemistry, 2025).

Assays:
A549 cells = experiment: Cellular Gd content after incubation (cell binding assay, ICP-MS); assay type: cell-based, human; settings: A549, 50 μM Gd, 37 °C, mean ± SD (n = 6)
Experimental: (§1) The binding of EBP-Gd-DO3A and EBP-(Gd-DO3A)3 to the receptor on MDA-MB-231, A549, SGC-7901, SW480, and U138 MG cells was compared with that of Gadovist. The cells were seeded into 100 mm × 20 mm cell culture dishes at a density of approximately 1 × 10^6 cells per dish and incubated with EBP-Gd-DO3A, EBP-(Gd-DO3A)3 or Gadovist at a Gd concentration of 50 μM for 1 h or 12 h at 37 °C. After incubation, the cells were washed once with PBS followed by mild acidic buffer (50 mM glycine, 150 mM NaCl (pH 3.0)) at 4 °C for 5 min. Then, the cells were washed twice with PBS, and the cellular Gd content was measured by ICP-MS.
(§2) Cells were seeded into 100 mm×20 mm cell culture dishes at a density of approximately 1×10^6 cells per dish and incubated with EBP-Gd-DO3A, EBP-(Gd-DO3A)3 or Gadovist® at Gd concentrations of 50 μM at 37°C for the indicated time points. The Gd content in the cell lysates was quantified by ICP-MS. The values are presented as the mean ± SD (n = 6).

SW480 cells = experiment: as above; assay type: cell-based, human; settings: SW480, 50 μM Gd, 37 °C, mean ± SD (n = 6)
Experimental: as §1, §2

MDA-MB-231 cells = experiment: as above; assay type: cell-based, human; settings: MDA-MB-231 (EGFR-overexpressing), 50 μM Gd, 37 °C, mean ± SD (n = 6)
Experimental: as §1, §2

U138MG cells = experiment: as above; assay type: cell-based, human; settings: U138MG (non-EGFR-overexpressing), 50 μM Gd, 37 °C, mean ± SD (n = 6)
Experimental: as §1, §2

SGC-7901 cells = experiment: as above; assay type: cell-based, human; settings: SGC-7901, 50 μM Gd, 37 °C, mean ± SD (n = 6)
Experimental: as §1, §2

U138 MG tumor xenografts = experiment: In vivo biodistribution: tumor Gd content (ICP-MS); settings: SCID mice, mean ± SD
Experimental: (§3) The 6- to 8-week-old male non-obese diabetic (NOD)/severe-combined immunodeficient (SCID) mice were used to establish MDA-MB-231 (EGFR-overexpressing) and U138 MG (non-EGFR-overexpressing) xenograft models ([35]). The mice were obtained from the Experimental Animal Center of Tongji Medical College, Huazhong University of Science and Technology, and all the experimental procedures involving animals were further approved by the Animal Care and Use Committee of Huazhong University of Science and Technology. The mice were housed separately in polycarbonate cages and provided with food and water. Tumors were grown under the skin by s.c. injection of 1 × 10^6-3 × 10^6 cells. The mice were randomized into groups for the biodistribution assay and MR imaging in vivo when the xenografts reached 5 to 7 mm in diameter. All procedures were approved by the Institutional Animal Care and Use Committee of Huazhong University of Science and Technology (approval no.270193).
The tumor-bearing SCID mice were randomly divided into groups, with 6 animals in each group, an injected via the tail vein with 50 μM Gd/kg EBP-Gd-DO3A, EBP-(Gd-DO3A)3, or Gadovist. At the selected time points (0.25, 0.5, 1, 2, 4, 8, 24, and 48 h) after injection, blood was collected and centrifuged to separate the plasma. Then, organ and tissue samples, including the kidneys, liver, heart, and tumor, were collected and weighed. The tissue samples were liquefied for 1 week and then transferred into centrifuge tubes and centrifuged at 14,000 rpm for 5 min. The resulting supernatants were diluted tenfold with deionized water and centrifuged again under the same conditions. The Gd concentration in the samples was measured by ICP-MS ([36]).

[1] = system: MDA-MB-231 and U138 MG tumor xenografts; experiment: In vivo MR imaging of tumor xenografts; set-up: species or system SCID mice; settings: i.v. 50 μM Gd/kg, 7 T T1-weighted MRI, n = 6; conjugates in MDA-MB-231 xenografts; imaged up to 4 h
Experimental: as §3, with “All procedures were approved by the Institutional Animal Care and Use Committee of Huazhong University of Science and Technology (approval no.270193).” left out
Tumor-bearing SCID mice were randomly grouped and scanned with a Bruker Biospec 7 T MRI scanner (Bruker Corp.) with a volume radio frequency (RF) coil. […] The parameters of the 2D T1-weighted gradient echo sequence were TR/TE = 151.2/1.9 ms, FOV = 3.0 cm, slice thickness = 1.2 mm, slice number = 20, average = 1, flip angle = 80°, and matrix = 128 × 128 ([28], [37]).The CNR were calculated with standard methods (CNR = [Stumor-Sbackground]/SDnoise).

Row | Gd content in the U138 MG tumors (U138 MG tumor xenografts; 0.5 h after single i.v. 50 μM Gd/kg) [nM/g tissue] | Gd content in the U138 MG tumors (U138 MG tumor xenografts; 2 h after single i.v. 50 μM Gd/kg) [nM/g tissue] | Gd content in the U138 MG tumors (U138 MG tumor xenografts; 24 h after single i.v. 50 μM Gd/kg) [nM/g tissue] | Molecule | Concentration of cellular Gd (A549 cells; 1 h) [μM/10^6 cells] | Concentration of cellular Gd (A549 cells; 12 h) [μM/10^6 cells] | Concentration of cellular Gd (SW480 cells; 1 h) [μM/10^6 cells] | Concentration of cellular Gd (SW480 cells; 12 h) [μM/10^6 cells] | Concentration of cellular Gd (MDA-MB-231 cells; 1 h) [μM/10^6 cells] | Concentration of cellular Gd (MDA-MB-231 cells; 12 h) [μM/10^6 cells] | Concentration of cellular Gd (U138MG cells; 1 h) [μM/10^6 cells] | Concentration of cellular Gd (U138MG cells; 12 h) [μM/10^6 cells] | Concentration of cellular Gd (SGC-7901 cells; 1 h) [μM/10^6 cells] | Concentration of cellular Gd (SGC-7901 cells; 12 h) [μM/10^6 cells] | time that tumor contrast enhancement persisted after injection [1] [h]
1 | 8.70 ± 1.24 | 5.76 ± 0.45 | 0.90 ± 0.23 | O=C([O-])CN1CCN(CC(=O)[O-])CCN([C@H](CO)[C@H](O)CO)CCN(CC(=O)[O-])CC1.[Gd+3] (racemic) [Gadovist, reference compound] | 0.25± 0.05 | 0.18 ± 0.04 | 0.19 ± 0.07 | 0.20 ± 0.07 | 0.18 ± 0.06 | 0.13 ± 0.02 | 0.20 ± 0.04 | 0.24 ± 0.05 | 0.15 ± 0.05 | 0.16 ± 0.03 | 2
2 |  |  |  | CMYIEALDKYAC [EBP-(Gd-DO3A)3] | 1.04 ± 0.06 | 2.66 ± 0.15 | 1.05 ± 0.09 | 2.65 ± 0.11 | 1.17 ± 0.12 | 2.79 ± 0.18 | 0.15 ± 0.04 | 0.74 ± 0.17 | 1.01± 0.08 | 2.31 ± 0.14 | 
3 |  |  |  | CMYIEALDKYAC [EBP-Gd-DO3A] | 0.37 ± 0.07 | 1.24 ± 0.19 | 0.31 ± 0.06 | 1.01 ± 0.13 | 0.43 ± 0.05 | 1.16 ± 0.10 | 0.09 ± 0.01 | 0.25 ± 0.07 | 0.35 ± 0.04 | 1.12 ± 0.16 | 
